{"source": "paper PMC8776894", "about": "(Communications Biology, 2022)", "key": {"[1]": {"tested_on": "CD45+F4/80+CD11b+MHCII+ microglia", "experiment": "Flow cytometry of primary microglia from brain", "format": "in vivo, mouse", "conditions": "MCAO/R mice, IF", "protocol": "Brain samples were collected in sham or MCAO mice, digested with collagenase IV and DNase, and filtered with sterile cell strainers (Biologix, 70 µm). Single-cell suspensions were prepared after the removal of red blood cells by ammonium-chloride-potassium (ACK) lysis buffer and isolated leukocytes in brains by 30%, 37%, and 70% Percoll (GE Healthcare) density gradient centrifugation, respectively. Cell numbers were counted by a Coulter counter (Thermo Fisher). Cells were washed with buffer (PBS with 0.5% bovine serum albumin and 0.02% sodium azide) three times and subsequently stained with fluorochrome-conjugated monoclonal antibodies: PE Rat anti-Mouse CD45 (553081, BD Biosciences), FITC anti-mouse F4/80 antibody (123108, Biolegend), PerCP-Cyanine5.5 CD11b antibody (45-0112-82, Invitrogen), and APC anti-mouse I-A/I-E antibody (107614, Biolegend). Samples were analyzed using Flow Cytometry (CytoFLEX S). Subsequent analysis was performed with FlowJo software (Tree Star Inc., San Carlos, CA, USA). Total microglia were identified as CD45^+F4/80^+CD11b^+, M1-like microglia were identified as CD45 + F4/80 + CD11b + MHCII + ."}, "[2]": {"tested_on": "BV2 microglia cells (OGD/R)", "experiment": "BV2 cell viability after OGD/R (CCK8)", "conditions": "VK 0.0735, 0.735, 7.35 µM"}, "[3]": {"tested_on": "platelet aggregation in platelet rich plasma", "experiment": "Platelet aggregation function test", "format": "cell-based", "conditions": "VK 0.0091–0.294 µM; rabbit PRP, ADP 6.07 µmol/L, 5 min maximum aggregation rate", "protocol": "Platelet aggregation function test. Venous blood from (normal healthy rabbits) was collected in 3 mL sodium citrate anticoagulation vacuum plastic tubes. The collected venous blood was centrifuged for 10 min at 100 × g at 4℃ to obtain the upper plasma, and the platelet rich plasma (PRP) was prepared, centrifuged again for 10 min at 2000 × g at 4°C to draw the upper plasma, the platelet poor plasma (PPP) was prepared and […] to a platelet concentration of 3×10^8 cells/ml was counted. The adjusted PRP was placed into a four-channel platelet aggregation instrument (Agg RAM, Helena Laboratories, USA) to determine the 5 min maximum platelet aggregation rate with adenosine diphosphate (ADP), arachidonic acid (AA), thrombin, collagen (COL) , and platelet-activating factor (PAF) or saline as inducers (at a final […]\nAcute toxicity test. Systemic acute toxicity test by peritoneal injection was performed according to the guideline provided by Center for Drug Evaluation and Research. In addition to the normal group, male mice were randomly divided into the treated groups received a single dose of 1.5 mg/kg, 6 mg/kg, 24 mg/kg, 96 mg/kg and 384 body weight of VK. […]\nThe obtained plasma was analyzed using an automatic coagulation apparatus (CA1500)."}, "[4]": {"tested_on": "IL-1β, TNF-α, IL-6, IL-8, IL-10 in ischemic cortex", "experiment": "Cytokine ELISA in ischemic cortex", "format": "in vivo, mouse", "conditions": "MCAO/R mice, 48 h", "protocol": "Mice were decapitated under anesthesia at 48 h after MCAO/R. The IL-1β (Cat# 88-5019-88), TNF-α (Cat# 88-7324-22), IL-6 (Cat# 88-7064-88), and IL-8 (Cat# 88-8086-22) were purchased from Thermo Fisher Scientific. The levels of these proteins were measured by enzyme-linked immune sorbent assays (ELISA) kits, according to the manufacturer’s recommendations."}, "[5]": {"tested_on": "MCAO/R mice", "experiment": "Longa test", "format": "in vivo, mouse", "text": "Mice were graded on a 5-point scale, which was modified from the Longa score."}, "[6]": {"tested_on": "MCAO/R mice", "experiment": "Evans blue extravasation, BBB permeability", "format": "in vivo, mouse", "set-up": "EB content in damaged (right) hemisphere (Fig.4): unit not given here", "conditions": "for EB content in damaged (right) hemisphere (Fig.4): individual animals", "protocol": "Fig. 4 Protective effect of VK on the blood–brain barrier (BBB) in stroke mice. a Experimental design: in addition to the sham group, mice (8–10 weeks, male) were subjected to MCAO for 60 min. Mice were randomized into four groups: sham group, vehicle group, and VK (150 and 300 µg/kg) groups. Mice were administered VK at 0, 4, 22.5, and 46.5 h after MCAO/R and BBB integrity was assessed by Evans blue (EB) and transmission electron microscope (TEM). b Brain samples were stained with EB. c EB content in damaged (right) hemisphere was quantized. d Schematic of BBB. The BBB mainly consists of endothelial cells (EC), pericytes (PC), astrocytes (Ast), neurons, tight junctions (TJs), and the basement membranes (BM). The main components of the BBB are cerebral microvascular ECs joined by TJs, thus restricting exogenous molecules into the brain. e The structure of the BBB was observed by TEM. In the sham group (e1–3), the capillary morphology was regular, the EC and TJ were complete, the thickness of the BM was uniform and continuous around the outside of EC, and the structure of mitochondria (Mt) was clear. […] The marks with different symbols indicate the constituent cells or matrix of the BBB. Scale bars: 2 µm. Data are expressed as the mean ± SD, n = 5. Values were analyzed using one-way analysis of variance (ANOVA) with the Tukey multiple comparisons test."}, "[7]": {"tested_on": "microglia in brain of MCAO/R mice", "experiment": "IBA1 staining of microglia (IHC, immunofluorescence)", "format": "in vivo, mouse"}}, "note": "Several values for one entry are separate records, joined by “and”; a condition that tells them apart may be missing. Equal values may be shown once."}
{"substance": "Gly-Arg-Pro-Hyp-Gly-Phe-Ser-Pro-Phe-Arg-Ile-Asp [VK, Vespakinin-M]", "values": [{"measurement": "activation of microglia", "setting": "[1]", "value": "suppressed the excessive activation of microglia"}, {"measurement": "OGD/R-reduced viability of BV2 cells", "setting": "[2]", "value": "reversed by VK treatment in a dose-dependent manner"}, {"measurement": "ADP-induced platelet aggregation vs control group", "setting": "[3]", "value": "decreased"}, {"measurement": "IL-10 level in ischemic cortex vs vehicle", "setting": "[4]", "value": "increase in IL-10 levels"}, {"measurement": "IL-1β, TNF-α, IL-6 and IL-8 levels in cortex of the ischemic hemisphere vs vehicle", "setting": "[4]; VK 150 and 300 µg/kg", "value": "decreased IL-1β, TNF-α, IL-6, and IL-8 levels"}, {"measurement": "Longa test score (Fig.2e)", "setting": "[5]; 0.5d, VK 150 µg/kg i.p., individual animals", "value": "4 and 3 (2×) and 2 (3×)"}, {"measurement": "Longa test score (Fig.2e)", "setting": "[5]; 0.5d, VK 300 µg/kg i.p., individual animals", "value": "2 (3×) and 3 (2×) and 4"}, {"measurement": "Longa test score (Fig.2e)", "setting": "[5]; 1d, VK 150 µg/kg i.p., individual animals", "value": "3 and 2 (3×) and 1 (2×)"}, {"measurement": "Longa test score (Fig.2e)", "setting": "[5]; 1d, VK 300 µg/kg i.p., individual animals", "value": "2 (3×) and 3 (2×) and 1"}, {"measurement": "Longa test score (Fig.2e)", "setting": "[5]; 3d, VK 150 µg/kg i.p., individual animals", "value": "2 (2×) and 1 (4×)"}, {"measurement": "Longa test score (Fig.2e)", "setting": "[5]; 3d, VK 300 µg/kg i.p., individual animals", "value": "1 (2×) and 2 (4×)"}, {"measurement": "Longa test score (Fig.2e)", "setting": "[5]; 7d, VK 150 µg/kg i.p., individual animals", "value": "2 and 1 (5×)"}, {"measurement": "Longa test score (Fig.2e)", "setting": "[5]; 7d, VK 300 µg/kg i.p., individual animals", "value": "1 (3×) and 2 (3×)"}, {"measurement": "neurological deficits, Longa test, vs vehicle", "setting": "[5]; MCAO/R mice, VK 150 and 300 µg/kg i.p.", "value": "improved neurological deficits"}, {"measurement": "Fig8g neurological score", "setting": "[5]; VK alone or with B1R / B2R blockade, individual animals, n = 5, score and time not given", "value": "1 and 2 and 0"}, {"measurement": "Fig8f neurological score", "setting": "[5]; VK alone or with B1R / B2R blockade, individual animals, n = 6, score and time not given", "value": "1 and 2"}, {"measurement": "EB content in damaged (right) hemisphere (Fig.4)", "setting": "[6]; VK 150 µg/kg i.p.", "value": "0.6116 and 3.907 and 2.036 and 0.849 and 0.3932"}, {"measurement": "EB content in damaged (right) hemisphere (Fig.4)", "setting": "[6]; VK 300 µg/kg i.p.", "value": "0.754 and 0.4027 and 0.5261 and 1.381 and 3.67"}, {"measurement": "BBB permeability, EB extravasation", "setting": "[6]; VK 150 and 300 µg/kg", "value": "reversed the effect of MCAO-induced on BBB permeability"}, {"measurement": "I/R-induced elevation of IBA1 expression in cerebral cortex", "setting": "[7]", "value": "greatly blunted"}]}
